Laboratory results taken from patent US20090285919A1, “Rice Bran Extracts for Inflammation and Methods of Use Thereof” (priority 2008, published 2009).

Biological target: T1, COX-2 (Homo sapiens, UniProt P35354)
T1 construct: purchased Cayman Chemicals (Ann Arbor, Mich.)
T1 sequence (P35354 18-604): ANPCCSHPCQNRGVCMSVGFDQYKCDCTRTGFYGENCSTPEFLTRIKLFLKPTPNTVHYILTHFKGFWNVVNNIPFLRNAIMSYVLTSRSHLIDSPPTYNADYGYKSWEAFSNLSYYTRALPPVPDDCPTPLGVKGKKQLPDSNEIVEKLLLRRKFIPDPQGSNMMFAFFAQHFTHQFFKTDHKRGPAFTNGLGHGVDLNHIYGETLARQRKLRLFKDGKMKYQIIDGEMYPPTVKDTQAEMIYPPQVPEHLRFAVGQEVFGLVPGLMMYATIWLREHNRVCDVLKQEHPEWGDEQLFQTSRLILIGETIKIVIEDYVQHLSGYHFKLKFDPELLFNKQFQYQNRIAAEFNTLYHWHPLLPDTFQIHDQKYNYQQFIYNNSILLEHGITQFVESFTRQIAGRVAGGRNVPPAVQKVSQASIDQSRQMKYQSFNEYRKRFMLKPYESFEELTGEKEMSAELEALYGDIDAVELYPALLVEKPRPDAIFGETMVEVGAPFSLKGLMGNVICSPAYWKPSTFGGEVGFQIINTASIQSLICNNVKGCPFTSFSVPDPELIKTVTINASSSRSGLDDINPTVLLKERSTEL
Test: COX-2 inhibition assay (Cayman Chemicals; prostaglandin production quantified by EIA)
Format: biochemical
Details: in words; known compounds of SRB Extract 1
Experimental: All reagents and solutions were prepared according to the protocols established by Cayman Chemicals (Ann Arbor, Mich.) for the COX-1 and COX-2 inhibition assays. Two procedures were utilized to assess the COX-1/COX-2-specific and non-specific activities.
Prostaglandin Production Inhibition: Extracts were diluted in dimethylsulfoxide (DMSO), and then diluted in reaction buffer so that the final concentration of DMSO was 1%. Reactions were either run with COX-1 or COX-2 in the presence of Heme. Wells containing potential inhibitors (SRB extracts), non-inhibitor (100% activity) or background wells (heat inactivated enzyme) along with appropriate blanks were prepared. Solutions were placed in a 37° C. incubator for 15 minutes prior to running the reaction. Arachidonic acid was added and mixed and the reaction proceeded for 2 minutes. The reaction was stopped by addition of 1 M HCl to each well, then reducing the Prostaglandin H2 product to ProstaglandinG F2, which was quantified using EIA.
Quantification of Prostaglandin with EIA: The EIA assay plate was provided in the Cayman Chemicals screening kit. Aliquots, 50 μL, of the reaction products (PGF2) from prostaglandin production were added to their respective wells. […] The color development was quantified at 409 nm in a Tecan M200 microplate reader.

SMILES | COX-2 inhibition
CC1(C)C[C@@H](O)C[C@@]2(C)OC(=O)C=C12 [epiloliode, Epiloliolide] | strong
CCCc1ccccn1 [conyrin] | strong
